Assay results reported in PubChem BioAssay (NCI).
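Each compound was tested at five concentrations against cells in 96-well plates for 48 hours. GI50 marks 50% less growth. TGI: total growth inhibition.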

Key:
Assay in all cases: growth of human tumour cells (NCI), 48 h
[1] = system: CCRF-CEM leukemia
[2] = system: SR leukemia
[3] = system: SK-MEL-5 melanoma
[4] = system: MALME-3M melanoma
[5] = system: HCC-2998 colon
[6] = system: OVCAR-5 ovarian
[7] = system: OVCAR-3 ovarian
[8] = system: CAKI-1 renal
[9] = system: SK-MEL-2 melanoma
[10] = system: EKVX NSCLC

SMILES	TGI [1] [µM]	TGI [2] [µM]	TGI [3] [µM]	TGI [4] [µM]	TGI [5] [µM]	TGI [6] [µM]	TGI [7] [µM]	TGI [8] [µM]	TGI [9] [µM]	TGI [10] [µM]	GI50 [1] [µM]	GI50 [2] [µM]	GI50 [3] [µM]	GI50 [4] [µM]	GI50 [5] [µM]	GI50 [6] [µM]	GI50 [7] [µM]	GI50 [8] [µM]	GI50 [9] [µM]	GI50 [10] [µM]
CN(C)c1ccc2c(c1)C(=O)N(OS(=O)(=O)c1ccc([N+](=O)[O-])cc1)C2=O	63.1	63.8	> 100	> 100	60.3	57.6	> 10	54.2	87	> 100	–	–	–	–	–	–	–	–	–	–
COc1cccc(C2CC(c3cc(OC)c(OC)c(OC)c3)=NN2)c1 (stereo not given)	21.7	14.1	24	> 100	18.3	66.1	76.3	50.5	54.6	46.1	2.91	3.09	11.8	23.4	4.78	18.4	20.2	14.7	13.2	14.5
COC1=CC(c2ccc[nH]2)=N/C1=C\c1[nH]c(C)c(C(=O)OCc2ccccc2)c1C	> 28.3	0.885	0.177	2.1	1.71	1.99	0.645	1.76	0.196	3.64	0.0404	0.0405	0.0476	0.495	0.087	0.211	0.0621	0.0483	0.0445	0.206
CCCN(CCC)CCCNCc1cc(I)cc(C)c1O	6.06	21.2	19.3	31.5	36.1	43.7	27.9	30.6	36.3	33.7	1.28	7.18	6.83	16.5	20.9	18.5	14.8	14.6	20.1	15.8
CO[C@H](C(=O)[C@@H](O)[C@@H](C)O)[C@@H]1Cc2cc3cc(O[C@H]4C[C@@H](O[C@H]5C[C@@H](O)[C@H](O)C(C)O5)[C@H](O)C(C)O4)c(C)c(O)c3c(O)c2C(=O)[C@H]1O[C@H]1C[C@@H](O[C@H]2C[C@@H](O[C@H]3C[C@@H](OC)[C@H](O)C(C)O3)[C@@H](O)C(C)O2)C(O)(O)C(C)O1 (stereo not given in full)	> 25	> 25	0.467	2.03	5.09	> 25	7.23	> 17.3	0.592	> 25	0.138	0.0932	0.0208	0.0532	0.47	0.376	0.24	2.89	0.0551	0.318
C[n+]1c(/C=C\C=C\N2CCCCC2)sc2ccccc21	> 40.5	3.08	1.5	2.18	14.1	> 35.2	5.81	28.9	14.3	10.8	0.299	0.105	0.276	0.311	0.451	5.2	0.243	4.8	0.634	0.255
Cc1ccc(S(=O)(=O)N/N=C/c2oc(-c3cccc([N+](=O)[O-])c3)c(-c3cccc([N+](=O)[O-])c3)c2[N+](=O)[O-])cc1	56.8	45.8	> 100	> 100	> 100	> 100	> 100	> 100	76.9	> 100	–	–	–	–	–	–	–	–	–	–
Cc1ccccc1NC(=S)Nc1ccccn1	> 100	> 100	> 100	> 100	> 100	> 100	> 100	> 100	> 100	> 100	> 100	> 100	47.2	> 100	> 100	> 100	> 100	> 100	> 100	49
CCN(CC)CCNC(=O)c1ccccc1NC(=O)C(=O)Nc1ccccc1C(=O)NCCN(CC)CC	71.9	47.6	35.6	37.7	> 100	> 100	> 100	> 100	> 100	> 100	–	–	–	–	–	–	–	–	–	–
